Measured values published in patent publication US8598132B2, “Glycosylated indolocarbazoles, method for obtaining same and uses thereof” (Universidad de Oviedo, priority 2008, dated 2013).

Target: T1, AurB (Homo sapiens, UniProt Q96GD4)
T1 construct: purchased Carna Biosciences
Test: LabChip (Caliper) kinase assay, AurB
Assay type: biochemical
Settings: ATP at Km, read-out: CI50 (the source's name)
Protocol: The analysis of kinase activity described here was performed using LabChip (Caliper Life Sciences), specifically the Caliper LC3000 and the EZ Reader II instruments.
The kinase assay used measures the conversion of a fluorescent peptide (substrate) to a phosphorylated product. The reaction mixture, in a microplate well, is introduced by a capillary in a chip where the non-phosphorylated substrate and the phosphorylated product are separated by […]. The intensity of the fluorescent signal over time is related to the reaction progress. The phosphorylated product migrates quicker than the non-phosphorylated substrate and the signals of the two forms of the peptide appear as differentiated peaks. The Caliper determines the peak height and calculates the ratio of product to the peak sum (P/(P+S)). This value is used to compare wells with compounds and wells with controls and thus determine the % of inhibition for the given product. […]
The compounds were dissolved in 100% DMSO and were diluted at 25 times the final concentration desired for the assay. […] The microplates were read by the LabChip 3000 using a 12-channel LabChip. […]

T1 sequence (Q96GD4 whole entry): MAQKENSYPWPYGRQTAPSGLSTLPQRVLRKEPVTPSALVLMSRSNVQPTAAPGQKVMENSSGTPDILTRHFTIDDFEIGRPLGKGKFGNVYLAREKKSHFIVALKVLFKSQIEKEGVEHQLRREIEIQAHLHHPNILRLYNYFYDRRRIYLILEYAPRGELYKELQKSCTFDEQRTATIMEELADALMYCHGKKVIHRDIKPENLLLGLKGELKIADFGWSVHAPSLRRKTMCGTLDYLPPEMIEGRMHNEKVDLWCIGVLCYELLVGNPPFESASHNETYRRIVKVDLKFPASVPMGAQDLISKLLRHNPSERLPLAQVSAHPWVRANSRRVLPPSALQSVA
T1 sequence (Q9NQS7 803-918 partner limits assumed): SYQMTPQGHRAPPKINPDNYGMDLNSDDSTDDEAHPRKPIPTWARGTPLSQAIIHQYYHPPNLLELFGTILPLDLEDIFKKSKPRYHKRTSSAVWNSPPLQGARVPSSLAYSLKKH

SMILES	IC50
C[C@]12O[C@H](C[C@@H](O)[C@H]1O)n1c3ccccc3c3c4c(c5c6ccccc6n2c5c31)C(=O)NC4=O [formula (IX), N^12-5′(S)-N^13-1′-(R)-L-digitoxosylarcyriaflavin]	4.5 nM
C[C@]12O[C@H](C[C@H](O)[C@H]1O)n1c3ccccc3c3c4c(c5c6ccccc6n2c5c31)CNC4=O [formula (XVII), N^12-5′(S)-N^13-1′-(R)-L-olivosyl-k252c]	6.8 nM
